Results published in patent US20240096447A1, “METHODS OF GENERATING PHENOCOPY SIGNATURES AND USES THEREOF” (Wisconsin Alumni Research Foundation, priority 2022, published 2024).

Legend:
breast cancer patients [1] = experiment: Pathologic complete response in the chemoimmunotherapy (pembrolizumab) arm of the I-SPY2 trial, by TP53 loss phenocopy status; format: in vivo, human; settings: pembrolizumab with anthracycline/taxane-based neoadjuvant chemotherapy backbone
Description: In addition, we sought to identify published cohorts with pre-chemotherapy RNA profiling with pathologic response data. The majority of data we could find was in the setting of breast cancer neoadjuvant chemotherapy, where response could be assessed at the time of surgery. Our dataset evaluating clinical treatment response and the phenocopy signatures in breast cancer included 18 breast cancer cohorts with gene expression data downloaded from the Gene Expression Omnibus (GEO) with the following accession numbers: GSE22093, GSE25055, GSE41998, GSE20194, GSE4779, GSE8465, GSE66399, GSE16446, GSE20271, GSE18864, GSE25065, GSE32646, GSE164458, GSE22226, GSE192341, GSE163882, GSE34138, GSE32603, and one additional publicly available TNBC gene expression cohort^48. Finally, we utilized gene expression and clinical response data from the I-SPY2 trial as an independent clinical validation cohort for our phenocopy signatures and breast cancer neoadjuvant therapy response, also downloaded from GEO (GSE194040).
Each of the breast cancer datasets had annotations for pathologic response (pCR versus no pCR) for each sample. The TP53 phenocopy signature was then applied without modification to pre-treatment samples from each breast cancer study, with normalization/batch correction as above. […]

breast cancer patients [2] = experiment: Response to neoadjuvant everolimus in a breast cancer cohort (GSE119262), by mTOR phenocopy status; format: in vivo, human; settings: neoadjuvant everolimus followed by surgery

Molecule pembrolizumab has a pCR rate (breast cancer patients [1]; TP53 loss phenocopy samples) of 64% and a pCR rate (breast cancer patients [1]; non-phenocopy samples) of 28%.

In the case of `CO[C@H]1C[C@@H]2CC[C@@H](C)[C@@](O)(O2)C(=O)C(=O)N2CCCC[C@H]2C(=O)O[C@H]([C@H](C)C[C@@H]2CC[C@@H](OCCO)[C@H](OC)C2)CC(=O)[C@H](C)/C=C(\C)[C@@H](O)[C@@H](OC)C(=O)[C@H](C)C[C@H](C)/C=C/C=C/C=C/1C` [everolimus], the “tumors that responded to anti-mTOR therapy” value (breast cancer patients [2]; pre-treatment non-mTOR phenocopy tumors) is reported as 75.8% and the “tumors that responded to anti-mTOR therapy” value (breast cancer patients [2]; pre-treatment samples predicted as mTOR mutation phenocopies) is reported as 100%.
